Data taken from paper PMC11769347, “Development of Novel Fluticasone/Salmeterol/Tiotropium-Loaded Dry Powder Inhaler and Bioequivalence Assessment to Commercial Products in Rats” (Pharmaceutics, 2025).

Columns and labels:
Format in all cases: physicochemical
[1] = Dissolution of fine particles less than 5 μm in simulated lung fluid; details: 37 °C, 75 rpm; for dissolved: within 15 min
Procedure: To collect the fine particles less than 5 μm on a glass fiber filter, abbreviated ACI was used [17, 18]. The micronized FP/SX/TB blend was dispersed at a flow rate of 60 L/min, and 4.0 L of air was withdrawn. The glass fiber filter with collected fine particles was assembled into a filter holder (Copley Scientific, Nottingham, UK). […] The filter holder was placed in a dissolution vessel, and 500 mL of simulated lung fluid was used as dissolution media [19]. The dissolution media was maintained at a temperature of 37 ± 0.5 °C with an agitation speed of 75 rpm. At a predetermined time, 2 mL of the media was collected and diluted with 0.1 M HCl, edetate disodium dihydrate, and methanol to achieve a ratio of 900:50:0.075:50. The diluted solution was filtered through a 0.45 μm PVDC membrane filter and analyzed by HPLC as described in Section 2.5.

[2] = Particle size by laser diffraction (HELOS) after air jet milling
Procedure: The drug was supplied into a jet mill at a rate of 10 g/min with injection air and grinding air pressures set at among 1–4 bars. The particle size of the micronized TB was measured using high-resolution laser diffraction spectroscopy (HELOS; Sympatec, Clausthal-Zellerfeld, Germany).

[3] = Effect of capsule components on drug stability (degraded compounds by HPLC); details: in various capsules, 60 °C for 2 weeks; % of the initial amount
Procedure: The effect of capsule components on the stability of FP, SX, or TB was investigated. The main materials and gelling agent of the capsule are described in Table 2. Each capsule was packed in an aluminum–aluminum blister and stored at 60 °C for 2 weeks. For comparison, commercial products are stored under the same conditions. Degraded compounds of FP, SX, or TB were analyzed as described in Section 2.5.
Degradation compounds of FP, SX, or TB were quantified using a high-performance liquid chromatography (HPLC) system (Hitachi, Tokyo, Japan) comprising a 5110 pump, 5430 detectors, a 5310 column oven, and 5210 autosamplers. While FP and SX were analyzed together, TB was assessed using a separate set of analytical conditions. Inertsil® ODS-2 column (4.6 mm × 250 mm, 5 μm) was used to analyze the degradation compounds of FP and SX. The powder, equivalent to 2.5 mg of FP and 0.725 mg of SX, was introduced into 5 mL of a mixture consisting of phosphoric acid, methanol, and distilled water in a ratio of 0.05:89.95:10. The mixture solution was vortexed for 30 min and passed through a 0.45 μm membrane filter. Fifty microliter aliquots of the filtered solution were injected and detected at 228 nm. […] Fifteen microliter aliquots of the sample solution were injected into the column at 50 °C and monitored at […] with a flow rate of 1.2 mL/min.

[4] = powder without the air jet milling process (as from the manufacturer)

Row | Compound | dissolved [1] | particle size ([2]; air jet mill condition I: injection air pressure 2 bar, grinding air pressure 1 bar) [μm] | particle size ([2]; air jet mill condition II: injection air pressure 3 bar, grinding air pressure 2 bar) [μm] | particle size ([2]; air jet mill condition III: injection air pressure 4 bar, grinding air pressure 3 bar) [μm] | particle size [2, 4] | total degraded compound of FP [3] | maximum dissolution [1]
1 | C[N+]1(C)[C@@H]2C[C@@H](OC(=O)C(O)(c3cccs3)c3cccs3)C[C@H]1[C@@H]1O[C@@H]12 [TB, tiotropium bromide] | more than 85% | 3.1 ± 0.3 | 2.5 ± 0.1 | 1.4 ± 0.3 | 6.1 ± 0.8 μm | – | –
2 | OCc1cc(C(O)CNCCCCCCOCCCCc2ccccc2)ccc1O (stereo not shown) [SX, salmeterol xinafoate] | more than 85% | – | – | – | less than 5 μm | – | –
3 | CCC(=O)O[C@]1(C(=O)SCF)[C@H](C)C[C@H]2[C@@H]3C[C@H](F)C4=CC(=O)C=C[C@]4(C)[C@@]3(F)[C@@H](O)C[C@@]21C [FP, fluticasone propionate] | – | – | – | – | less than 5 μm | less than 0.7% | approximately 20%
